Assay results as given in PubChem BioAssay (NCI).
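Following 48 hours of exposure in 96-well plates, responses at five concentrations were used to interpolate endpoints linearly. GI50 marks 50% less growth. TGI: total growth inhibition.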

Columns and labels:
Experiment in all cases: inhibition of tumour cell growth, NCI panel, 48 h
A549 NSCLC = test system: A549 NSCLC
HCT-116 colon = test system: HCT-116 colon
IGROV1 ovarian = test system: IGROV1 ovarian
LOX IMVI melanoma = test system: LOX IMVI melanoma
MDA-MB-231 breast = test system: MDA-MB-231 breast
MOLT-4 leukemia = test system: MOLT-4 leukemia
OVCAR-8 ovarian = test system: OVCAR-8 ovarian
SK-OV-3 ovarian = test system: SK-OV-3 ovarian
UO-31 renal = test system: UO-31 renal
A498 renal = test system: A498 renal

Cc1ccc(S[C@@H](C)[C@@](O)(C(N)=O)c2ccccc2)cc1
TGI (A549 NSCLC): > 100 µM
TGI (HCT-116 colon): > 100 µM
TGI (IGROV1 ovarian): 15.5 µM
TGI (LOX IMVI melanoma): 33.7 µM
TGI (MDA-MB-231 breast): 46 µM
TGI (MOLT-4 leukemia): 33.3 µM
TGI (OVCAR-8 ovarian): > 100 µM
TGI (SK-OV-3 ovarian): > 100 µM
TGI (UO-31 renal): 30.2 µM

CC/C(=C\c1ccc(OC)cc1)c1ccc(OC)cc1
TGI (A498 renal): > 100 µM
TGI (A549 NSCLC): > 100 µM
TGI (HCT-116 colon): > 100 µM
TGI (IGROV1 ovarian): > 100 µM
TGI (LOX IMVI melanoma): > 100 µM
TGI (MDA-MB-231 breast): > 100 µM
TGI (MOLT-4 leukemia): > 100 µM
TGI (OVCAR-8 ovarian): > 100 µM
TGI (SK-OV-3 ovarian): > 100 µM
TGI (UO-31 renal): > 100 µM

CCOC(=O)C1=C(C)N(Cc2ccccc2)C2(O)C=CC(=O)C3=C(O)c4ccccc4C(=O)C312 (configuration not stated)
TGI (A498 renal): 60.3 µM
TGI (A549 NSCLC): 39.8 µM
TGI (HCT-116 colon): 21.8 µM
TGI (IGROV1 ovarian): 17.5 µM
TGI (LOX IMVI melanoma): 36.6 µM
TGI (MDA-MB-231 breast): 37.8 µM
TGI (MOLT-4 leukemia): > 100 µM
TGI (OVCAR-8 ovarian): 39 µM
TGI (SK-OV-3 ovarian): > 100 µM
TGI (UO-31 renal): 21.5 µM

CCOc1cc2c(cc1O)C(N)C[C@@H]1[C@@H]2CC[C@]2(C)[C@@H](O)CC[C@@H]12 (some centres not stated)
TGI (A498 renal): > 100 µM
GI50 (HCT-116 colon): 39.7 µM
TGI (HCT-116 colon): > 100 µM
TGI (IGROV1 ovarian): > 100 µM
TGI (LOX IMVI melanoma): > 100 µM
TGI (MDA-MB-231 breast): > 100 µM
TGI (MOLT-4 leukemia): > 100 µM
TGI (OVCAR-8 ovarian): > 100 µM
TGI (UO-31 renal): > 100 µM

CCOC(=O)CCC(NC(=O)c1ccc(Nc2nc3ccccc3nc2C(=O)OCC)cc1)C(=O)OCC (configuration not stated)
TGI (A498 renal): 18.6 µM
TGI (A549 NSCLC): 14.3 µM
TGI (HCT-116 colon): 8.6 µM
TGI (IGROV1 ovarian): 9.2 µM
TGI (LOX IMVI melanoma): > 41.5 µM
TGI (MDA-MB-231 breast): > 23.8 µM
TGI (MOLT-4 leukemia): > 100 µM
TGI (OVCAR-8 ovarian): 7.97 µM
TGI (SK-OV-3 ovarian): 8.01 µM
TGI (UO-31 renal): 12.2 µM

CC/C(N)=N\NC(=O)OC(C)(C)C
TGI (A498 renal): > 100 µM
TGI (A549 NSCLC): > 100 µM
TGI (HCT-116 colon): > 100 µM
TGI (IGROV1 ovarian): > 100 µM
TGI (LOX IMVI melanoma): > 100 µM
TGI (MDA-MB-231 breast): > 100 µM
TGI (MOLT-4 leukemia): > 100 µM
TGI (OVCAR-8 ovarian): > 100 µM
TGI (SK-OV-3 ovarian): > 100 µM
TGI (UO-31 renal): > 100 µM

CN1CCN([C@H]2C[C@H]3[C@@H]4CC=C5C[C@@H](O)CC[C@]5(C)[C@H]4CC[C@]3(C)[C@H]2O)CC1
TGI (A498 renal): > 100 µM
TGI (A549 NSCLC): > 100 µM
TGI (HCT-116 colon): > 80.6 µM
TGI (IGROV1 ovarian): > 100 µM
TGI (LOX IMVI melanoma): > 57.3 µM
TGI (MDA-MB-231 breast): > 64.7 µM
TGI (MOLT-4 leukemia): > 82.5 µM
TGI (OVCAR-8 ovarian): > 57.1 µM
TGI (SK-OV-3 ovarian): > 100 µM
TGI (UO-31 renal): > 100 µM

CC1(C)CC(=O)C2=C(C1)OC1(CC2c2ccc(Cl)cc2)CC(c2ccc(Cl)cc2)C2=C(CC(C)(C)CC2=O)O1 (configuration not stated)
TGI (A498 renal): 31 µM
TGI (A549 NSCLC): 30.9 µM
TGI (HCT-116 colon): > 48.9 µM
TGI (IGROV1 ovarian): 33.4 µM
TGI (LOX IMVI melanoma): 64.2 µM
TGI (MDA-MB-231 breast): 50.3 µM
TGI (MOLT-4 leukemia): 13.6 µM
TGI (OVCAR-8 ovarian): 87.5 µM
TGI (SK-OV-3 ovarian): 29.4 µM
TGI (UO-31 renal): 30.7 µM

O=C1C(c2c(O)[nH]c3ccc(S(=O)(=O)NCCO)cc23)=Nc2ccccc21
TGI (A498 renal): 9.07 µM
TGI (A549 NSCLC): > 100 µM
TGI (HCT-116 colon): 16.2 µM
TGI (IGROV1 ovarian): > 100 µM
TGI (LOX IMVI melanoma): > 100 µM
TGI (MDA-MB-231 breast): 31.6 µM
TGI (MOLT-4 leukemia): 36.6 µM
TGI (OVCAR-8 ovarian): > 100 µM
TGI (SK-OV-3 ovarian): 20.3 µM
TGI (UO-31 renal): > 100 µM

O=P(O)(O)CN1CCNCCN(CP(=O)(O)O)CC1
TGI (A498 renal): > 100 µM
TGI (A549 NSCLC): 58.7 µM
TGI (HCT-116 colon): > 38 µM
TGI (IGROV1 ovarian): > 100 µM
TGI (LOX IMVI melanoma): > 100 µM
TGI (MDA-MB-231 breast): > 100 µM
TGI (MOLT-4 leukemia): > 100 µM
TGI (OVCAR-8 ovarian): > 51 µM
TGI (SK-OV-3 ovarian): > 100 µM
TGI (UO-31 renal): > 100 µM

C=CCNC(=S)/N=C/C(C(=O)Nc1ccccc1C)=C(\C)O
TGI (A549 NSCLC): > 100 µM
TGI (HCT-116 colon): > 100 µM
TGI (IGROV1 ovarian): > 100 µM
TGI (LOX IMVI melanoma): > 100 µM
TGI (MDA-MB-231 breast): > 100 µM
TGI (MOLT-4 leukemia): > 100 µM
TGI (OVCAR-8 ovarian): > 100 µM
TGI (SK-OV-3 ovarian): > 100 µM
TGI (UO-31 renal): > 100 µM

O=C1C=C(N2CCN(CCOCCO)CC2)C(=O)c2c(O)ccc(O)c21
TGI (A498 renal): 27.8 µM
TGI (A549 NSCLC): 11.4 µM
TGI (HCT-116 colon): 7.44 µM
TGI (IGROV1 ovarian): 9.9 µM
TGI (LOX IMVI melanoma): 6.62 µM
TGI (MDA-MB-231 breast): 21.8 µM
TGI (OVCAR-8 ovarian): 17.9 µM
TGI (SK-OV-3 ovarian): 38.8 µM
TGI (UO-31 renal): 22.6 µM

COc1ccc(CNc2nc3ccccc3nc2C(=O)O)cc1
TGI (A498 renal): > 100 µM
TGI (A549 NSCLC): > 100 µM
TGI (HCT-116 colon): > 100 µM
TGI (IGROV1 ovarian): > 100 µM
TGI (LOX IMVI melanoma): > 100 µM
TGI (MDA-MB-231 breast): > 100 µM
TGI (OVCAR-8 ovarian): > 100 µM
TGI (UO-31 renal): > 100 µM

CC(C)c1ccc(/C=C2\CSCC3=C2N=C2SCC(=O)N2C3c2ccc(C(C)C)cc2)cc1 (configuration not stated)
TGI (A549 NSCLC): > 100 µM
TGI (HCT-116 colon): > 100 µM
TGI (IGROV1 ovarian): > 100 µM
TGI (LOX IMVI melanoma): > 100 µM
TGI (MDA-MB-231 breast): > 100 µM
TGI (MOLT-4 leukemia): > 100 µM
TGI (OVCAR-8 ovarian): > 100 µM
TGI (SK-OV-3 ovarian): > 100 µM
TGI (UO-31 renal): > 100 µM

COc1ccc2c(c1)CCC/C2=N\NS(=O)(=O)c1c(C)cc(C)cc1C
TGI (A498 renal): 77 µM
TGI (A549 NSCLC): > 100 µM
TGI (HCT-116 colon): 35.6 µM
TGI (IGROV1 ovarian): 55 µM
TGI (LOX IMVI melanoma): 43 µM
TGI (MDA-MB-231 breast): > 100 µM
TGI (MOLT-4 leukemia): 66.1 µM
TGI (OVCAR-8 ovarian): 85.3 µM
TGI (UO-31 renal): > 100 µM

O=c1cc(N2CCCC2)[nH]c(=O)n1-c1ccc(Cl)cc1
TGI (A498 renal): > 100 µM
TGI (A549 NSCLC): > 100 µM
TGI (HCT-116 colon): > 100 µM
TGI (IGROV1 ovarian): > 100 µM
TGI (LOX IMVI melanoma): > 100 µM
TGI (MDA-MB-231 breast): > 100 µM
TGI (MOLT-4 leukemia): > 100 µM
TGI (OVCAR-8 ovarian): > 100 µM
TGI (SK-OV-3 ovarian): > 100 µM

COc1ccc(-n2cnc3c(NC(Cc4ccccc4)C(=O)O)ncnc32)cc1 (configuration not stated)
TGI (A498 renal): > 100 µM
TGI (A549 NSCLC): > 100 µM
TGI (HCT-116 colon): > 100 µM
TGI (IGROV1 ovarian): > 100 µM
TGI (LOX IMVI melanoma): > 100 µM
TGI (MDA-MB-231 breast): > 100 µM
TGI (OVCAR-8 ovarian): > 100 µM
TGI (SK-OV-3 ovarian): > 100 µM
TGI (UO-31 renal): > 100 µM

Cc1cc(=O)oc2c(CNC(CC(C)C)C(=O)O)c(O)ccc12 (configuration not stated)
TGI (A549 NSCLC): > 100 µM
TGI (HCT-116 colon): > 100 µM
TGI (IGROV1 ovarian): > 100 µM
TGI (LOX IMVI melanoma): > 100 µM
TGI (MDA-MB-231 breast): > 100 µM
TGI (MOLT-4 leukemia): > 100 µM
TGI (OVCAR-8 ovarian): > 100 µM
TGI (SK-OV-3 ovarian): > 100 µM
TGI (UO-31 renal): > 100 µM

N#Cc1nc(/C=C/c2cccnc2)oc1N
TGI (A498 renal): > 100 µM
TGI (A549 NSCLC): > 100 µM
TGI (HCT-116 colon): > 100 µM
TGI (IGROV1 ovarian): > 100 µM
TGI (LOX IMVI melanoma): > 100 µM
TGI (MDA-MB-231 breast): > 100 µM
TGI (MOLT-4 leukemia): > 100 µM
TGI (SK-OV-3 ovarian): > 100 µM
TGI (UO-31 renal): > 100 µM

O=C1CC(c2ccccc2)S(=O)c2ccccc2N1 (configuration not stated)
TGI (A549 NSCLC): > 100 µM
TGI (HCT-116 colon): > 100 µM
TGI (IGROV1 ovarian): > 100 µM
TGI (LOX IMVI melanoma): > 100 µM
TGI (MDA-MB-231 breast): > 100 µM
TGI (MOLT-4 leukemia): > 100 µM
TGI (OVCAR-8 ovarian): > 100 µM
TGI (SK-OV-3 ovarian): > 100 µM
TGI (UO-31 renal): > 100 µM

COc1cc2c3c(cc(Cl)nc3c1OC)C(O)(CC(=O)c1ccccc1)C(=O)N2 (configuration not stated)
TGI (A498 renal): 32.3 µM
TGI (A549 NSCLC): 33.1 µM
TGI (HCT-116 colon): 16.2 µM
TGI (IGROV1 ovarian): 27.4 µM
TGI (LOX IMVI melanoma): 20.6 µM
TGI (MDA-MB-231 breast): 31.2 µM
TGI (OVCAR-8 ovarian): 32.1 µM
TGI (SK-OV-3 ovarian): 32.2 µM
TGI (UO-31 renal): 26.2 µM

CC(=O)OCC1OC(n2c(-c3ccccc3)c(N=Nc3ccc(C)cc3)c(C)c(C#N)c2=S)C(OC(C)=O)C(OC(C)=O)C1OC(C)=O (configuration not stated)
TGI (A498 renal): 18.4 µM
TGI (A549 NSCLC): 47 µM
TGI (HCT-116 colon): 15.4 µM
TGI (LOX IMVI melanoma): 64.1 µM
TGI (MDA-MB-231 breast): > 100 µM
TGI (MOLT-4 leukemia): 55.2 µM
